Measured values reported in patent US5496854A, “Metallocenes as anti-tumor drugs” (Technion Research & Development Foundation Ltd., priority 1992, dated 1996).
Where two headings read alike, the source gives them in different places.

Tests used:
Molt-4 T-cell Leukemia = assay: Cytotoxicity (growth inhibition), Molt-4; conditions: for cytotoxicity (log.): molt-4 cells
Description: (§1) The value of the ratio Ti/Pt represents the relative activity of TPE as compared with that of cis-platinum.
(§2) The excipient can serve as an agent for promoting absorption of the medicament by the body or as formulation auxiliary, sweetener, flavouring agent, colourant or preservative. […] The novel titanocene derivatives, according to the present invention, can be prepared from common chemical reagents using standard equipment. It should be realized, that the Examples for their preparations presented hereinafter are only for illustration and many other routes may be conceived for their syntheses.

[1] = test system: Ovcar-3 Ovarian Carcinoma; assay: Cytotoxicity (growth inhibition), Ovcar-3
Description: as §1, §2

[2] = test system: Capan 1 Pancreas Carcinoma; assay: Cytotoxicity (growth inhibition), Capan 1
Description: as §1, §2

HT-29 Colon Carcinoma = assay: Cytotoxicity (growth inhibition), HT-29
Description: as §1, §2

H-322 Lung Carcinoma = assay: Cytotoxicity (growth inhibition), H-322
Description: as §1, §2

MCF-7 Breast Cancer = assay: Cytotoxicity (growth inhibition), MCF-7
Description: as §1, §2

[3] = test system: CHO Chinese Hamstead Ovary; assay: Cytotoxicity (growth inhibition), CHO
Description: as §1, §2

[4] = test system: HMEC Normal Human Mammary; assay: Cytotoxicity (growth inhibition), HMEC
Description: as §1, §2

NHDF Normal Human Skin = assay: Cytotoxicity (growth inhibition), NHDF
Description: as §1, §2

[5] = test system: NHEK Normal Keratino Epithelial; assay: Cytotoxicity (growth inhibition), NHEK
Description: as §1, §2

SK-Mel-28 Melanoma = assay: Cytotoxicity (growth inhibition), SK-Mel-28
Description: as §1, §2

UCLA-P3 Lung Carcinoma = assay: Cytotoxicity (growth inhibition), UCLA-P3
Description: as §1, §2

HL-60 B-cell Leukemia = assay: Cytotoxicity (growth inhibition), HL-60
Description: as §1, §2

P-388 Mouse Leukemia = assay: Cytotoxicity (growth inhibition), P-388
Description: as §1, §2

tumor = conditions: prior art; cited from earlier work

COCCOCCOC(=O)c1ccc([O-])cc1.COCCOCCOC(=O)c1ccc([O-])cc1.[Ti+4].c1cc[cH-]c1.c1cc[cH-]c1 [TEG, Bis[4-(2-(2-methoxyethoxy)ethoxy]carbonylphenolato]bis(n^5-cyclopentadienyl)titanium(IV)]
cytotoxicity (log.) (Molt-4 T-cell Leukemia): -4.00 log. (M)
cytotoxicity (log.) ([1]; ovcar-3 cells): -4.00 log. (M)

C[N+](C)(C)CCOC(=O)c1ccc([O-])cc1.C[N+](C)(C)CCOC(=O)c1ccc([O-])cc1.[Ti+4].c1cc[cH-]c1.c1cc[cH-]c1 [TCE, Bis[4-(2-trimethylammono)ethoxycarbonylphenolato]bis(n^5-cyclopentadienyl)titanium(IV)]
cytotoxicity (log.) ([2]; capan 1 cells): -4.00 log. (M)
cytotoxicity (log.) (HT-29 Colon Carcinoma; ht-29 cells): -4.00 log. (M)
cytotoxicity (log.) (H-322 Lung Carcinoma; h-322 cells): -4.00 log. (M)
cytotoxicity (log.) (MCF-7 Breast Cancer; mcf-7 cells): -4.30 log. (M)
cytotoxicity (log.) (Molt-4 T-cell Leukemia): -4.00 log. (M)
cytotoxicity (log.) ([1]; ovcar-3 cells): -4.00 log. (M)

CCOC(=O)c1ccc([O-])cc1.CCOC(=O)c1ccc([O-])cc1.[Ti+4].c1cc[cH-]c1.c1cc[cH-]c1 [TEE-1, Bis(4-ethoxycarbonylphenolato)bis(n^5-cyclopentadienyl)titanium(IV)]
cytotoxicity (log.) ([3]; cho cells): -4.60 log. (M)
cytotoxicity (log.) ([4]; human, hmec cells): -6.11 log. (M)
cytotoxicity (log.) (NHDF Normal Human Skin; human, nhdf cells): -4.89 log. (M)
cytotoxicity (log.) ([5]; human, nhek cells): -5.80 log. (M)
cytotoxicity (log.) ([2]; capan 1 cells): -5.51 log. (M)
cytotoxicity (log.) (HT-29 Colon Carcinoma; ht-29 cells): -5.20 log. (M)
cytotoxicity (log.) (SK-Mel-28 Melanoma; sk-mel-28 cells): -5.51 log. (M)
cytotoxicity (log.) (H-322 Lung Carcinoma; h-322 cells): -5.80 log. (M)
cytotoxicity (log.) (UCLA-P3 Lung Carcinoma; ucla-p3 cells): -5.20 log. (M)
cytotoxicity (log.) (MCF-7 Breast Cancer; mcf-7 cells): -5.80 log. (M)
cytotoxicity (log.) (HL-60 B-cell Leukemia; hl-60 cells): -5.51 log. (M)
cytotoxicity (log.) (Molt-4 T-cell Leukemia): -7.00 log. (M)
cytotoxicity (log.) ([1]; ovcar-3 cells): -5.20 log. (M)
cytotoxicity (log.) (P-388 Mouse Leukemia; p-388 cells): -4.89 log. (M)

COCCOC(=O)c1ccc([O-])cc1.COCCOC(=O)c1ccc([O-])cc1.[Ti+4].c1cc[cH-]c1.c1cc[cH-]c1 [TMEM, Bis[4-(2-methoxy)ethoxycarbonylphenolato]bis(n^5-cyclopentadienyl)titanium(IV)]
cytotoxicity (log.) ([3]; cho cells): -4.30 log. (M)
cytotoxicity (log.) ([4]; human, hmec cells): -4.60 log. (M)
cytotoxicity (log.) (NHDF Normal Human Skin; human, nhdf cells): -4.30 log. (M)
cytotoxicity (log.) ([2]; capan 1 cells): -4.89 log. (M)
cytotoxicity (log.) (HT-29 Colon Carcinoma; ht-29 cells): -4.60 log. (M)
cytotoxicity (log.) (SK-Mel-28 Melanoma; sk-mel-28 cells): -4.60 log. (M)
cytotoxicity (log.) (H-322 Lung Carcinoma; h-322 cells): -4.89 log. (M)
cytotoxicity (log.) (MCF-7 Breast Cancer; mcf-7 cells): -4.89 log. (M)
cytotoxicity (log.) (HL-60 B-cell Leukemia; hl-60 cells): -4.60 log. (M)
cytotoxicity (log.) (Molt-4 T-cell Leukemia): -7.00 log. (M)
cytotoxicity (log.) ([1]; ovcar-3 cells): -4.60 log. (M)

COC(=O)c1ccc([O-])cc1.COC(=O)c1ccc([O-])cc1.[Ti+4].c1cc[cH-]c1.c1cc[cH-]c1 [TPE, Bis(4-methoxycarbonylphenolato)bis(n^5-cyclopentadienyl)titanium(IV)]
ratio Ti/Pt ([3]; CHO, relative activity of TPE as compared with cis-platinum): 2
IC50 ([3]; cho cells): 13 µM
cytotoxicity (log.) ([3]; cho cells): -4.80 log. (M)
ratio Ti/Pt ([4]; HMEC, relative activity of TPE as compared with cis-platinum): 20
CC50 ([4]; human, hmec cells): 3.1 µM
cytotoxicity (log.) ([4]; human, hmec cells): -5.70 log. (M)
ratio Ti/Pt (NHDF Normal Human Skin; NHDF, relative activity of TPE as compared with cis-platinum): 20
CC50 (NHDF Normal Human Skin; human, nhdf cells): 1.6 µM
cytotoxicity (log.) (NHDF Normal Human Skin; human, nhdf cells): -5.41 log. (M)
ratio Ti/Pt ([5]; NHEK, relative activity of TPE as compared with cis-platinum): 200
CC50 ([5]; human, nhek cells): 3.1 µM
cytotoxicity (log.) ([5]; human, nhek cells): -5.51 log. (M)
ratio Ti/Pt ([2]; Capan 1, relative activity of TPE as compared with cis-platinum): 10
IC50 ([2]; capan 1 cells): 0.39 µM
cytotoxicity (log.) ([2]; capan 1 cells): -6.41 log. (M)
ratio Ti/Pt (HT-29 Colon Carcinoma; HT-29, relative activity of TPE as compared with cis-platinum): 200
IC50 (HT-29 Colon Carcinoma; ht-29 cells): 3.9 µM
cytotoxicity (log.) (HT-29 Colon Carcinoma; ht-29 cells): -5.41 log. (M)
ratio Ti/Pt (SK-Mel-28 Melanoma; SK-Mel-28, relative activity of TPE as compared with cis-platinum): 10
IC50 (SK-Mel-28 Melanoma; sk-mel-28 cells): 1.6 µM
cytotoxicity (log.) (SK-Mel-28 Melanoma; sk-mel-28 cells): -5.41 log. (M)
ratio Ti/Pt (H-322 Lung Carcinoma; H-322, relative activity of TPE as compared with cis-platinum): 100
IC50 (H-322 Lung Carcinoma; h-322 cells): 0.63 µM
cytotoxicity (log.) (H-322 Lung Carcinoma; h-322 cells): -6.20 log. (M)
ratio Ti/Pt (UCLA-P3 Lung Carcinoma; UCLA-P3, relative activity of TPE as compared with cis-platinum): 20
IC50 (UCLA-P3 Lung Carcinoma; ucla-p3 cells): 3.1 µM
cytotoxicity (log.) (UCLA-P3 Lung Carcinoma; ucla-p3 cells): -5.51 log. (M)
ratio Ti/Pt (MCF-7 Breast Cancer; MCF-7, relative activity of TPE as compared with cis-platinum): 100
IC50 (MCF-7 Breast Cancer; mcf-7 cells): 2 µM
cytotoxicity (log.) (MCF-7 Breast Cancer; mcf-7 cells): -5.70 log. (M)
ratio Ti/Pt (HL-60 B-cell Leukemia; HL-60, relative activity of TPE as compared with cis-platinum): 2
IC50 (HL-60 B-cell Leukemia; hl-60 cells): 3.1 µM
cytotoxicity (log.) (HL-60 B-cell Leukemia; hl-60 cells): -5.70 log. (M)
ratio Ti/Pt (Molt-4 T-cell Leukemia; Molt-4, relative activity of TPE as compared with cis-platinum): 10
cytotoxicity (log.) (Molt-4 T-cell Leukemia): -6.00 log. (M)
ratio Ti/Pt ([1]; Ovcar-3, relative activity of TPE as compared with cis-platinum): 10
IC50 ([1]; ovcar-3 cells): 6.3 µM
cytotoxicity (log.) ([1]; ovcar-3 cells): -5.20 log. (M)
IC50 (P-388 Mouse Leukemia; p-388 cells): 3.9 µM
cytotoxicity (log.) (P-388 Mouse Leukemia; p-388 cells): -5.41 log. (M)

titanocene dichloride [TDC, reference compound]
IC50 ([3]; read-out: IC50 (cytotoxic data), CHO): 1000 µM
CC50 ([4]; read-out: IC50 (cytotoxic data), HMEC): 130 µM
CC50 (NHDF Normal Human Skin; read-out: IC50 (cytotoxic data), NHDF): 1000 µM
CC50 ([5]; read-out: IC50 (cytotoxic data), NHEK): 1000 µM
IC50 ([2]; read-out: IC50 (cytotoxic data), Capan 1): 500 µM
IC50 (HT-29 Colon Carcinoma; read-out: IC50 (cytotoxic data), HT-29): 500 µM
IC50 (SK-Mel-28 Melanoma; read-out: IC50 (cytotoxic data), SK-Mel-28): 1000 µM
IC50 (H-322 Lung Carcinoma; read-out: IC50 (cytotoxic data), H-322): 1000 µM
IC50 (UCLA-P3 Lung Carcinoma; read-out: IC50 (cytotoxic data), UCLA-P3): 1000 µM
IC50 (MCF-7 Breast Cancer; read-out: IC50 (cytotoxic data), MCF-7): 1000 µM
IC50 (HL-60 B-cell Leukemia; read-out: IC50 (cytotoxic data), HL-60): 1000 µM
IC50 (Molt-4 T-cell Leukemia; read-out: IC50 (cytotoxic data), Molt-4): 1 mM
IC50 ([1]; read-out: IC50 (cytotoxic data), Ovcar-3): 1000 µM
IC50 (P-388 Mouse Leukemia; read-out: IC50 (cytotoxic data), P-388): 500 µM
anti-tumor activity (tumor): very reactive anti-tumor reagent
